The conditions of series [1]: single oral dose, PXE patient, fasting baseline 0.7 μmol/l (FIG. 2). The text has this: Legend indicates the dose (per kg of body weight) and time of PPi consumption.
For series [2] the following is noted: three months after the operation; 44 mg/kg per oral once daily.
Method: As PXE patients have an increased risk of spontaneous gastrointestinal bleeding, aspirin medication was not used preoperatively. […] With the present therapy the patients absorbs extra 0.8 mg sodium and is informed to decrease daily salt intake.
Aspirin and PPi therapy were continued unaltered.
For series [3] the following is noted: human subjects. From the text: FIG. 1: Plasma bioavailability of PPi after oral disodium PPi and after oral tetrasodium PPI. Results of different subjects (#) are shown, as well as AUC and AUC/mg PPi.
In this experiment PPI bioavailability was compared between tetrasodium PPi and disodium PPi in different human subjects (as indicated by # in FIG. 1).

As for `O=P([O-])([O-])OP(=O)(O)O.[Na+].[Na+]` [disodium pyrophosphate], in series [1], the “time plasma pyrophosphate stayed in the normal fasting range of healthy controls (0.8-1.6 μmol/l)” value was 180 min. The safety laboratory tests entry in series [2] was “normal”. For the same molecule, the “PPi bioavailability in plasma after oral uptake” value in series [3] (compared with oral tetrasodium PPi (FIG. 1)) was “much better bioavailable”. The “area under the curve (AUC) and calculated AUC/mg PPi of plasma PPi” value in series [3] (oral, compared with tetrasodium PPi) is recorded as “higher”. In addition, under “one year postoperatively”, the “re-stenosis on computed tomography angiography (CTA)” value is on record as “without signs of re-stenosis”. For the same molecule, where the note is “one year postoperatively, baseline 0.19, 44 mg/kg per oral once daily”, the “Walking Impairment Questionnaire (WIQ) score” value was 0.89. Moreover, the “re-stenosis in the operated area on MRA” value (three months after the operation) is given as “no re-stenosis”.

The values above are taken from US20220288115A1, “ORAL DISODIUM PYR[…] USE IN REDUCING CALCIFICATION” (priority 2019, published 2022).
